# Columns and labels:
# [1] = Cytotoxicity against HEK293T cells cotransfected with pCMV-Script-hFXR/pGL4.11-hSHP-Luciferase incubated for 24 hrs in presence of GW4064 by celltiter-blue cell viability assay; assay type: toxicity, cell-based, HEK-293T; settings: human
# Bile acid receptor = target: T1, Bile acid receptor (Homo sapiens, UniProt Q96RI1); test: Antagonist activity at FXR (unknown origin) expressed in HEK293T cells cotransfected with pCMV-Script-hFXR/pGL4.11-hSHP-Luciferase incubated for 24 hrs in presence of GW4064 by Steady-glo luciferase assay; assay type: cell-based
# T1 sequence (Q96RI1 whole entry): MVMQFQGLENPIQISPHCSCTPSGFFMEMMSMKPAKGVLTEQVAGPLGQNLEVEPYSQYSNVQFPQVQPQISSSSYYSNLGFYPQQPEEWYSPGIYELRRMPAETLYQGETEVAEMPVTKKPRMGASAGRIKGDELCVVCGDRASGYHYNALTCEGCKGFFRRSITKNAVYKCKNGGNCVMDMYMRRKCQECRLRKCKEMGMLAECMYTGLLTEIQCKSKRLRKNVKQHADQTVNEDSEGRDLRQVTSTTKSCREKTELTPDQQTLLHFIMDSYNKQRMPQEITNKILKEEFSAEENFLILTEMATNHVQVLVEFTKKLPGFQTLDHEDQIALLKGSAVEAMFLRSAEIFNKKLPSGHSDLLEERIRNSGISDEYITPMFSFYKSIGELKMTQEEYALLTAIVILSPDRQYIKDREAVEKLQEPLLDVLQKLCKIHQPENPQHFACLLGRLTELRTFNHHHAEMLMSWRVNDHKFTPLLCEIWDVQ
Structure (SMILES),IC50 at 24 h [1] [µM],IC50 (Bile acid receptor) [µM]
CCCC(=O)O[C@@H]1CC[C@]2(C)[C@H]3CC[C@@H]4[C@H]5[C@H](C(C)C)CC[C@]5(NC(=O)NCC(=O)O)CC[C@@]4(C)[C@]3(C)CC[C@H]2C1(C)C,1.3,1.1
CCCC(=O)O[C@@H]1CC[C@]2(C)[C@H]3CC[C@@H]4[C@H]5[C@H](C(C)=O)CC[C@]5(C(=O)NCC(=O)O)CC[C@@]4(C)[C@]3(C)CC[C@H]2C1(C)C,44.3,10
CCCC(=O)O[C@H]1CC[C@]2(C)[C@H]3CC[C@@H]4[C@H]5[C@H](C(C)C)CC[C@]5(C(=O)NCC(=O)O)CC[C@@]4(C)[C@]3(C)CC[C@H]2C1(C)C,> 100,13
CCCC(=O)O[C@@H]1CC[C@]2(C)[C@H]3CC[C@@H]4[C@H]5[C@H](C(C)C)CC[C@]5(C(=O)NCC(=O)NS(C)(=O)=O)CC[C@@]4(C)[C@]3(C)CC[C@H]2C1(C)C,> 100,12.1
CC(C)[C@@H]1CC[C@]2(C(=O)NCC(=O)O)CC[C@]3(C)[C@H](CC[C@@H]4[C@@]5(C)CC[C@@H](OC(=O)C6CCCC6)C(C)(C)[C@@H]5CC[C@]43C)[C@@H]12,2,1.6
CC(C)[C@@H]1CC[C@]2(C(=O)NCC(=O)O)CC[C@]3(C)[C@H](CC[C@@H]4[C@@]5(C)CC[C@@H](OC(=O)C6CC6)C(C)(C)[C@@H]5CC[C@]43C)[C@@H]12,> 100,10
CCOC(=O)O[C@@H]1CC[C@]2(C)[C@H]3CC[C@@H]4[C@H]5[C@H](C(C)C)CC[C@]5(C(=O)NCC(=O)O)CC[C@@]4(C)[C@]3(C)CC[C@H]2C1(C)C,> 100,7.3
CCCC(=O)O[C@@H]1CC[C@]2(C)[C@H]3CC[C@@H]4[C@H]5[C@H](C(=O)CO)CC[C@]5(C(=O)NCC(=O)O)CC[C@@]4(C)[C@]3(C)CC[C@H]2C1(C)C,25.3,–
CCCC(=O)O[C@@H]1CC[C@]2(C)[C@H]3CC[C@@H]4[C@H]5[C@H](C(C)C)CC[C@]5(C(=O)NCCS(=O)(=O)O)CC[C@@]4(C)[C@]3(C)CC[C@H]2C1(C)C,> 100,> 100
CCCC(=O)O[C@@H]1CC[C@]2(C)[C@H]3CC[C@@H]4[C@H]5[C@H]([C@@H](C)C(=O)O)CC[C@]5(C(=O)NCC(=O)O)CC[C@@]4(C)[C@]3(C)CC[C@H]2C1(C)C,97.2,25.7
CC(C)[C@@H]1CC[C@]2(C(=O)NCC(=O)O)CC[C@]3(C)[C@H](CC[C@@H]4[C@@]5(C)CC[C@@H](OC(=O)C6CCC6)C(C)(C)[C@@H]5CC[C@]43C)[C@@H]12,> 100,4.1
CC(C)[C@@H]1CC[C@]2(C(=O)NCC(=O)O)CC[C@]3(C)[C@H](CC[C@@H]4[C@@]5(C)CC[C@@H](OC(=O)c6ccc(F)cc6)C(C)(C)[C@@H]5CC[C@]43C)[C@@H]12,55.7,–
CCCC(=O)O[C@@H]1CC[C@]2(C)[C@H]3CC[C@@H]4[C@H]5[C@H]([C@@H](C)CO)CC[C@]5(C(=O)NCC(=O)O)CC[C@@]4(C)[C@]3(C)CC[C@H]2C1(C)C,> 100,14.1
CCNC(=O)O[C@@H]1CC[C@]2(C)[C@H]3CC[C@@H]4[C@H]5[C@H](C(C)C)CC[C@]5(C(=O)NCC(=O)O)CC[C@@]4(C)[C@]3(C)CC[C@H]2C1(C)C,56,3.4
CCC(=O)O[C@@H]1CC[C@]2(C)[C@H]3CC[C@@H]4[C@H]5[C@H](C(C)C)CC[C@]5(C(=O)NCC(=O)O)CC[C@@]4(C)[C@]3(C)CC[C@H]2C1(C)C,> 100,9.1
CCCS(=O)(=O)O[C@@H]1CC[C@]2(C)[C@H]3CC[C@@H]4[C@H]5[C@H](C(C)C)CC[C@]5(C(=O)NCC(=O)O)CC[C@@]4(C)[C@]3(C)CC[C@H]2C1(C)C,> 100,14
CCCC(=O)O[C@@H]1CC[C@]2(C)[C@H]3CC[C@@H]4[C@H]5[C@H](C(C)C)CC[C@]5(C(=O)N[C@@H](C)C(=O)O)CC[C@@]4(C)[C@]3(C)CC[C@H]2C1(C)C,37.7,–
CCCCC(=O)O[C@@H]1CC[C@]2(C)[C@H]3CC[C@@H]4[C@H]5[C@H](C(C)C)CC[C@]5(C(=O)NCC(=O)O)CC[C@@]4(C)[C@]3(C)CC[C@H]2C1(C)C,> 100,3
CC(C)[C@@H]1CC[C@]2(C(=O)NCC(=O)O)CC[C@]3(C)[C@H](CC[C@@H]4[C@@]5(C)CC[C@@H](OC(=O)c6ccco6)C(C)(C)[C@@H]5CC[C@]43C)[C@@H]12,> 100,> 100
CCNS(=O)(=O)O[C@@H]1CC[C@]2(C)[C@H]3CC[C@@H]4[C@H]5[C@H](C(C)C)CC[C@]5(C(=O)NCC(=O)O)CC[C@@]4(C)[C@]3(C)CC[C@H]2C1(C)C,> 100,–
CC(C)[C@@H]1CC[C@]2(C(=O)O)CC[C@@H]3[C@H](CC[C@H]4[C@@]3(C)CC[C@H]3C(C)(C)[C@H](O)CC[C@]43C)[C@@H]12,61.7,7.9
CCCC(=O)O[C@@H]1CC[C@]2(C)[C@H]3CC[C@@H]4[C@H]5[C@H](C(C)C)CC[C@]5(NC(=O)OCC(=O)O)CC[C@@]4(C)[C@]3(C)CC[C@H]2C1(C)C,1,0.9
CC(C)[C@@H]1CC[C@]2(C(=O)NCC(=O)O)CC[C@]3(C)[C@H](CC[C@@H]4[C@@]5(C)CC[C@@H](OC(=O)c6ccccc6)C(C)(C)[C@@H]5CC[C@]43C)[C@@H]12,35,1.1
CCCC(=O)O[C@@H]1CC[C@]2(C)[C@H]3CC[C@@H]4[C@H]5[C@H](C(C)C)CC[C@]5(C(=O)NCCC(=O)O)CC[C@@]4(C)[C@]3(C)CC[C@H]2C1(C)C,> 100,9.9
COc1ccc(C(=O)O[C@@H]2CC[C@]3(C)[C@H]4CC[C@@H]5[C@H]6[C@H](C(C)C)CC[C@]6(C(=O)NCC(=O)O)CC[C@@]5(C)[C@]4(C)CC[C@H]3C2(C)C)cc1,> 100,4.1
CCCC(=O)O[C@@H]1CC[C@]2(C)[C@H]3CC[C@@H]4[C@H]5[C@H](C(C)C)CC[C@]5(C(=O)OCC(=O)O)CC[C@@]4(C)[C@]3(C)CC[C@H]2C1(C)C,29.2,1.9
CC(C)C(=O)O[C@@H]1CC[C@]2(C)[C@H]3CC[C@@H]4[C@H]5[C@H](C(C)C)CC[C@]5(C(=O)NCC(=O)O)CC[C@@]4(C)[C@]3(C)CC[C@H]2C1(C)C,> 100,4.6

# Reference: ChEMBL document CHEMBL5096210, “Discovery of Betulinic Acid Derivatives as Potent Intestinal Farnesoid X Receptor Antagonists to Ameliorate Nonalcoholic Steatohepatitis” (J Med Chem, 2022)
